Where “and” joins values, the source holds several entries; their conditions need not be identical. Identical values can stand only once. HELM strings list units from the 5' end as sugar, base in round brackets, then linkage (d deoxyribose, r ribose, m 2'-O-methyl, p phosphodiester). Strings are as the collection lists them, not checked against the first reports. ss, as = sense and antisense strand; [lna] = locked nucleic acid (LNA); [s4r] = 4'-thioribose; [fl2r] = 2'-fluoro
Details: siRNA
Note: test system not given here.

Substance	target mRNA knockdown
RNA1{r(A)p.r(G)p.r(U)p.r(U)p.r(U)p.r(C)p.[fl2r](U)p.[fl2r](A)p.r(G)p.r(G)p.r(G)p.r(C)p.r(C)p.r(G)p.r(U)p.r(G)p.r(G)p.r(C)p.r(C)p.r(T)p.r(T)}|RNA2{r(G)p.r(G)p.r(C)p.r(C)p.r(A)p.r(C)p.r(G)p.r(G)p.r(C)p.r(C)p.r(C)p.[fl2r](U)p.r(A)p.r(G)p.r(A)p.r(A)p.r(A)p.r(C)p.r(U)p.r(T)p.r(T)}$$$RNA1{StrandType:ss}|RNA2{StrandType:as}$	82%
RNA1{r(C)p.r(U)p.r(U)p.r(A)p.r(C)p.r(G)p.r(C)p.r(U)p.r(G)p.r(A)p.r(G)p.r(U)p.r(A)p.r(C)p.r(U)p.r(U)p.r(C)p.r(G)p.r(A)p.d(T)p.d(T)}|RNA2{r(U)p.r(C)p.r(G)p.r(A)p.r(A)p.r(G)p.r(U)p.r(A)p.r(C)p.[lna](T)p.r(C)p.r(A)p.r(G)p.r(C)p.r(G)p.r(U)p.r(A)p.r(A)p.r(G)p.[lna](T)p.r(T)}$$$RNA1{StrandType:ss}|RNA2{StrandType:as}$	93%
RNA1{[s4r](C)p.[s4r](G)p.[s4r](U)p.[s4r](A)p.[s4r](C)p.[s4r](G)p.r(C)p.r(G)p.r(G)p.r(A)p.r(A)p.r(U)p.r(A)p.[s4r](C)p.[s4r](U)p.[s4r](U)p.[s4r](C)p.[s4r](G)p.[s4r](A)p.r(T)p.r(T)}|RNA2{r(G)p.r(C)p.r(G)p.r(A)p.r(A)p.r(G)p.r(U)p.r(A)p.r(U)p.r(U)p.r(C)p.r(C)p.r(G)p.r(C)p.r(G)p.r(U)p.r(A)p.[s4r](C)p.[s4r](G)p.r(T)p.r(T)}$$$RNA1{StrandType:ss}|RNA2{StrandType:as}$	74.2%
RNA1{r(U)p.m(U)p.r(A)p.m(C)p.r(A)p.r(A)p.r(A)p.r(G)p.r(G)p.m(A)p.r(U)p.r(C)p.r(U)p.r(C)p.r(C)p.r(U)p.r(C)p.r(C)p.r(C)p.r(T)p.r(T)}|RNA2{r(G)p.r(G)p.r(G)p.r(A)p.r(G)p.r(G)p.r(A)p.r(G)p.m(A)p.r(U)p.r(C)p.r(C)p.r(U)p.r(U)p.m(U)p.r(G)p.m(U)p.r(A)p.r(A)p.r(T)p.r(T)}$$$RNA1{StrandType:ss}|RNA2{StrandType:as}$	78%
RNA1{r(C)p.[fl2r](U)p.r(A)p.r(G)p.r(A)p.r(G)p.r(G)p.r(A)p.r(U)p.r(C)p.r(U)p.[fl2r](U)p.r(G)p.r(A)p.r(A)p.r(G)p.r(A)p.r(C)p.r(C)p.r(T)p.r(T)}|RNA2{r(G)p.r(G)p.r(U)p.r(C)p.r(U)p.r(U)p.[fl2r](C)p.r(A)p.r(A)p.r(G)p.r(A)p.r(U)p.r(C)p.r(C)p.r(U)p.r(C)p.[fl2r](U)p.r(A)p.r(G)p.r(T)p.r(T)}$$$RNA1{StrandType:ss}|RNA2{StrandType:as}$	67% and 91%
RNA1{r(G)p.r(G)p.r(G)p.r(G)p.r(C)p.r(U)p.r(C)p.r(U)p.r(U)p.r(C)p.r(U)p.m(A)p.r(C)p.r(A)p.r(U)p.r(U)p.r(C)p.r(C)p.r(C)p.r(T)p.r(T)}|RNA2{r(G)p.r(G)p.r(G)p.r(A)p.r(A)p.r(U)p.r(G)p.m(U)p.r(A)p.r(G)p.r(A)p.r(A)p.r(G)p.r(A)p.r(G)p.r(C)p.r(C)p.r(C)p.r(C)p.r(T)p.r(T)}$$$RNA1{StrandType:ss}|RNA2{StrandType:as}$	72%
RNA1{r(A)p.r(A)p.r(G)p.r(G)p.r(A)p.r(C)p.r(C)p.[fl2r](U)p.r(A)p.r(G)p.r(A)p.r(G)p.r(G)p.r(A)p.r(G)p.r(U)p.[fl2r](C)p.r(A)p.r(C)p.r(T)p.r(T)}|RNA2{r(G)p.[fl2r](U)p.r(G)p.r(A)p.r(C)p.r(U)p.r(C)p.r(C)p.r(U)p.r(C)p.[fl2r](U)p.r(A)p.r(G)p.r(G)p.r(U)p.r(C)p.r(C)p.r(U)p.r(U)p.r(T)p.r(T)}$$$RNA1{StrandType:ss}|RNA2{StrandType:as}$	87%
RNA1{[fl2r](G)p.m(A)p.[fl2r](C)p.m(G)p.[fl2r](U)p.m(A)p.[fl2r](A)p.m(A)p.[fl2r](C)p.m(G)p.[fl2r](G)p.m(C)p.[fl2r](C)p.m(A)p.[fl2r](C)p.m(A)p.[fl2r](A)p.m(G)p.[fl2r](U)p.m(U)p.[fl2r](C)}|RNA2{r(A)p.r(C)p.r(U)p.r(U)p.r(G)p.r(U)p.r(G)p.r(G)p.r(C)p.r(C)p.r(G)p.r(U)p.r(U)p.r(U)p.r(A)p.r(C)p.r(G)p.r(U)p.[lna](C)p.[lna](G)p.r(C)}$$$RNA1{StrandType:ss}|RNA2{StrandType:as}$	84.4%
RNA1{r(G)p.r(C)p.r(U)p.r(G)p.r(A)p.r(A)p.r(C)p.[fl2r](U)p.r(A)p.r(G)p.r(U)p.r(C)p.r(G)p.r(A)p.r(A)p.r(A)p.r(G)p.r(A)p.r(A)p.r(T)p.r(T)}|RNA2{r(U)p.r(U)p.r(C)p.r(U)p.r(U)p.r(U)p.r(C)p.r(G)p.r(A)p.r(C)p.[fl2r](U)p.r(A)p.r(G)p.r(U)p.r(U)p.r(C)p.r(A)p.r(G)p.r(C)p.r(T)p.r(T)}$$$RNA1{StrandType:ss}|RNA2{StrandType:as}$	79%
RNA1{r(A)p.r(G)p.r(A)p.r(G)p.r(A)p.r(A)p.r(G)p.r(G)p.r(G)p.r(C)p.r(G)p.r(U)p.r(C)p.r(U)p.r(C)p.r(U)p.[fl2r](A)p.r(C)p.r(A)p.r(T)p.r(T)}|RNA2{r(U)p.r(G)p.[fl2r](U)p.r(A)p.r(G)p.r(A)p.r(G)p.r(A)p.r(C)p.r(G)p.r(C)p.r(C)p.r(C)p.r(U)p.r(U)p.r(C)p.r(U)p.r(C)p.r(U)p.r(T)p.r(T)}$$$RNA1{StrandType:ss}|RNA2{StrandType:as}$	69%
RNA1{m(A)p.r(G)p.m(A)p.r(A)p.m(A)p.r(C)p.m(G)p.r(C)p.m(A)p.r(G)p.m(U)p.r(A)p.m(A)p.r(U)p.m(C)p.r(C)p.m(G)p.r(G)p.m(A)p.r(T)p.r(T)}|RNA2{r(U)p.r(C)p.r(C)p.m(G)p.m(G)p.r(A)p.r(U)p.r(U)p.r(A)p.r(C)p.r(U)p.m(G)p.r(C)p.m(G)p.r(U)p.r(U)p.r(U)p.r(C)p.r(U)p.r(T)p.r(T)}$$$RNA1{StrandType:ss}|RNA2{StrandType:as}$	36%
RNA1{r(G)p.r(C)p.r(A)p.r(G)p.r(C)p.r(A)p.r(C)p.r(G)p.r(A)p.r(C)p.r(U)p.r(U)p.r(C)p.r(U)p.r(U)p.r(C)p.r(A)p.r(A)p.r(G)p.r(T)p.r(T)}|RNA2{[fl2r](C)p.[fl2r](U)p.[fl2r](U)p.r(G)p.r(A)p.r(A)p.r(G)p.r(A)p.r(A)p.r(G)p.[fl2r](U)p.[fl2r](C)p.r(G)p.[fl2r](U)p.r(G)p.[fl2r](C)p.[fl2r](U)p.r(G)p.[fl2r](C)p.r(T)p.r(T)}$$$RNA1{StrandType:ss}|RNA2{StrandType:as}$	83%
RNA1{[fl2r](A)p.[fl2r](A)p.r(C)p.r(C)p.r(C)p.[fl2r](A)p.r(C)p.r(C)p.[fl2r](A)p.r(C)p.[fl2r](A)p.r(G)p.r(C)p.[fl2r](U)p.[fl2r](A)p.r(G)p.[fl2r](A)p.[fl2r](A)p.r(C)p.[fl2r](U)p.[fl2r](U)}|RNA2{r(A)p.r(A)p.r(G)p.r(U)p.r(U)p.r(C)p.r(U)p.r(A)p.r(G)p.r(C)p.r(U)p.r(G)p.r(U)p.r(G)p.r(G)p.r(U)p.r(G)p.r(G)p.r(G)p.r(U)p.r(U)}$$$RNA1{StrandType:ss}|RNA2{StrandType:as}$	37% and 54%
RNA1{[s4r](A)p.[s4r](A)p.r(A)p.r(C)p.r(A)p.r(U)p.r(G)p.r(C)p.r(A)p.r(G)p.r(A)p.r(A)p.r(A)p.r(A)p.r(U)p.r(G)p.r(C)p.r(U)p.r(G)p.r(T)p.r(T)}|RNA2{[s4r](C)p.[s4r](A)p.r(G)p.r(C)p.r(A)p.r(U)p.r(U)p.r(U)p.r(U)p.r(C)p.r(U)p.r(G)p.r(C)p.r(A)p.r(U)p.r(G)p.r(U)p.[s4r](U)p.[s4r](U)p.r(T)p.r(T)}$$$RNA1{StrandType:ss}|RNA2{StrandType:as}$	44.8%
RNA1{r(G)p.r(A)p.m(U)p.r(A)p.r(G)p.r(G)p.r(A)p.r(A)p.r(G)p.r(G)p.r(G)p.r(G)p.r(C)p.r(U)p.r(U)p.r(C)p.r(A)p.r(G)p.r(C)p.r(T)p.r(T)}|RNA2{r(G)p.r(C)p.r(U)p.r(G)p.r(A)p.r(A)p.r(G)p.r(C)p.r(C)p.r(C)p.r(C)p.r(U)p.r(U)p.r(C)p.r(C)p.m(U)p.m(A)p.r(U)p.r(C)p.r(T)p.r(T)}$$$RNA1{StrandType:ss}|RNA2{StrandType:as}$	41%
RNA1{r(G)p.r(C)p.r(A)p.r(G)p.r(C)p.r(A)p.r(C)p.r(G)p.r(A)p.r(C)p.r(U)p.r(U)p.r(C)p.r(U)p.r(U)p.r(C)p.r(A)p.r(A)p.r(G)p.r(T)p.r(T)}|RNA2{d(C)p.d(U)p.d(U)p.d(G)p.d(A)p.d(A)p.d(G)p.d(A)p.d(A)p.d(G)p.d(U)p.d(C)p.d(G)p.d(U)p.d(G)p.d(C)p.d(U)p.d(G)p.d(C)p.r(T)p.r(T)}$$$RNA1{StrandType:ss}|RNA2{StrandType:as}$	0%
RNA1{r(A)p.r(A)p.r(G)p.r(G)p.r(A)p.r(C)p.r(C)p.m(U)p.r(A)p.r(G)p.r(A)p.r(G)p.r(G)p.r(A)p.r(G)p.r(U)p.m(C)p.m(A)p.r(C)p.r(T)p.r(T)}|RNA2{r(G)p.m(U)p.r(G)p.r(A)p.r(C)p.r(U)p.r(C)p.r(C)p.r(U)p.r(C)p.m(U)p.r(A)p.r(G)p.r(G)p.r(U)p.r(C)p.r(C)p.r(U)p.r(U)p.r(T)p.r(T)}$$$RNA1{StrandType:ss}|RNA2{StrandType:as}$	78%
RNA1{r(C)p.r(G)p.r(G)p.r(G)p.[fl2r](U)p.[fl2r](A)p.r(C)p.r(G)p.r(A)p.r(G)p.r(C)p.r(C)p.r(G)p.r(G)p.r(A)p.r(A)p.r(C)p.r(C)p.r(U)p.r(T)p.r(T)}|RNA2{r(A)p.r(G)p.r(G)p.r(U)p.r(U)p.r(C)p.r(C)p.r(G)p.r(G)p.r(C)p.r(U)p.r(C)p.r(G)p.[fl2r](U)p.r(A)p.r(C)p.r(C)p.r(C)p.r(G)p.r(T)p.r(T)}$$$RNA1{StrandType:ss}|RNA2{StrandType:as}$	68%
RNA1{[lna](A)p.r(U)p.r(C)p.r(U)p.r(G)p.r(A)p.r(A)p.r(G)p.r(A)p.r(A)p.r(G)p.r(G)p.r(A)p.r(G)p.r(A)p.r(A)p.r(A)p.r(A)p.r(A)p.[lna](T)p.[lna](T)}|RNA2{[lna](T)p.r(U)p.r(U)p.r(U)p.r(U)p.r(C)p.r(U)p.r(C)p.r(C)p.r(U)p.r(U)p.r(C)p.r(U)p.r(U)p.r(C)p.r(A)p.r(G)p.r(A)p.r(U)p.[lna](T)p.[lna](T)}$$$RNA1{StrandType:ss}|RNA2{StrandType:as}$	65% and 75%
RNA1{r(C)p.r(G)p.r(U)p.r(A)p.r(C)p.r(G)p.r(C)p.r(G)p.r(G)p.r(A)p.r(A)p.r(U)p.r(A)p.r(C)p.r(U)p.r(U)p.r(C)p.r(G)p.r(A)p.r(T)p.r(T)}|RNA2{r(U)p.r(C)p.r(G)p.r(A)p.r(A)p.r(G)p.r(U)p.r(A)p.r(U)p.r(U)p.r(C)p.r(C)p.r(G)p.m(C)p.m(G)p.m(U)p.m(A)p.m(C)p.m(G)p.r(T)p.r(T)}$$$RNA1{StrandType:ss}|RNA2{StrandType:as}$	30.8%

From the OligoGym collection
